Test results as given in paper PMC8766756, “Insights on Cancer Cell Inhibition, Subcellular Activities, and Kinase Profile of Phenylacetamides Pending 1H-Imidazol-5-One Variants” (Frontiers in Pharmacology, 2022).
“And” between values parts separate entries of the source, which are not always exact repeats. Identical values can stand only once.

Legend:
Test in all cases: PamChip tyrosine kinase microarray
Assay type in all cases: biochemical
Conditions in all cases: 0.1 µM, HL60 lysate
FGFR1 (P11362) = molecular target: T1, FGFR1 (P11362) (Homo sapiens, UniProt P11362)
T1 construct: purchased PamGene (PamChip PTK array, Upstream Kinase Analysis)
Procedure, shortened: (§1)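 HL60 (AML) cell lysate was spiked with compound at 0.001, 0.01, 0.1, 1, 10 and 50 µM, or 2% v/v DMSO as control, then profiled in technical replicates on a tyrosine kinase peptide array of 196 phosphosites. Kinase activity was inferred from peptide-set changes using an upstream kinase tool.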

LTK (P29376) = molecular target: T2, LTK (P29376) (Homo sapiens, UniProt P29376)
T2 construct: purchased PamGene (PamChip PTK array, Upstream Kinase Analysis)
Procedure, shortened: as §1

Brk (Q13882) = molecular target: T3, Brk (Q13882) (Homo sapiens, UniProt Q13882)
T3 construct: purchased PamGene (PamChip PTK array, Upstream Kinase Analysis)
Procedure, shortened: as §1

TRKB (Q16620) = molecular target: T4, TRKB (Q16620) (Homo sapiens, UniProt Q16620)
T4 construct: purchased PamGene (PamChip PTK array, Upstream Kinase Analysis)
Procedure, shortened: as §1

Arg (P42684) = molecular target: T5, Arg (P42684) (Homo sapiens, UniProt P42684)
T5 construct: purchased PamGene (PamChip PTK array, Upstream Kinase Analysis)
Procedure, shortened: as §1

PDGFR[beta] (P09619) = molecular target: T6, PDGFR[beta] (P09619) (Homo sapiens, UniProt P09619)
T6 construct: purchased PamGene (PamChip PTK array, Upstream Kinase Analysis)
Procedure, shortened: as §1

FLT3 (P36888) = molecular target: T7, FLT3 (P36888) (Homo sapiens, UniProt P36888)
T7 construct: purchased PamGene (PamChip PTK array, Upstream Kinase Analysis)
T7 sequence (P36888 27-993): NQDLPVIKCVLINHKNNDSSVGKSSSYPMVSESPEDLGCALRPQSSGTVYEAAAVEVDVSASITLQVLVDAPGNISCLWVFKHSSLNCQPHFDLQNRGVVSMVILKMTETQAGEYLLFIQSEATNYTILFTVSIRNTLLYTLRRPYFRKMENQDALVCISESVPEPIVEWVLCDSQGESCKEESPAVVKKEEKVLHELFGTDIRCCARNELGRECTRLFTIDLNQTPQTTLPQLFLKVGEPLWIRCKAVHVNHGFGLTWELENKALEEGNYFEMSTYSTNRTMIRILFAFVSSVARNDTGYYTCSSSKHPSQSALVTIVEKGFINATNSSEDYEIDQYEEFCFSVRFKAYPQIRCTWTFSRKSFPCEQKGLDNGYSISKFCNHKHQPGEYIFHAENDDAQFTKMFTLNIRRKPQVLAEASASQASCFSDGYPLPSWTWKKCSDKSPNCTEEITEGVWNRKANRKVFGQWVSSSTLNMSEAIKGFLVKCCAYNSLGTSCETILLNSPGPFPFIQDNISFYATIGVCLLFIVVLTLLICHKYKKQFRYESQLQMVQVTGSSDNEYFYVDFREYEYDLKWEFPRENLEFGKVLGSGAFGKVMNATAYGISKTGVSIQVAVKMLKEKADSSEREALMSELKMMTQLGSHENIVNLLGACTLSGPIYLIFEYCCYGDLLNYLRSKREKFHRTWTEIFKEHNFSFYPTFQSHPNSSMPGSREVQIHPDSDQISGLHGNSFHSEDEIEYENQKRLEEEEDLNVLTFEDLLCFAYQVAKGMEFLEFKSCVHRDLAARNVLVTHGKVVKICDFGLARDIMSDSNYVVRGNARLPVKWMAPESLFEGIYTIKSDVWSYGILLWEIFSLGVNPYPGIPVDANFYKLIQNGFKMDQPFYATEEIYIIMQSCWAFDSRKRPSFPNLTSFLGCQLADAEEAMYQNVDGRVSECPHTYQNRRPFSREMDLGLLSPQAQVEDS
Procedure, shortened: as §1

Syk (P43405) = molecular target: T8, Syk (P43405) (Homo sapiens, UniProt P43405)
T8 construct: purchased PamGene (PamChip PTK array, Upstream Kinase Analysis)
Procedure, shortened: as §1

T3 sequence (Q13882 whole entry): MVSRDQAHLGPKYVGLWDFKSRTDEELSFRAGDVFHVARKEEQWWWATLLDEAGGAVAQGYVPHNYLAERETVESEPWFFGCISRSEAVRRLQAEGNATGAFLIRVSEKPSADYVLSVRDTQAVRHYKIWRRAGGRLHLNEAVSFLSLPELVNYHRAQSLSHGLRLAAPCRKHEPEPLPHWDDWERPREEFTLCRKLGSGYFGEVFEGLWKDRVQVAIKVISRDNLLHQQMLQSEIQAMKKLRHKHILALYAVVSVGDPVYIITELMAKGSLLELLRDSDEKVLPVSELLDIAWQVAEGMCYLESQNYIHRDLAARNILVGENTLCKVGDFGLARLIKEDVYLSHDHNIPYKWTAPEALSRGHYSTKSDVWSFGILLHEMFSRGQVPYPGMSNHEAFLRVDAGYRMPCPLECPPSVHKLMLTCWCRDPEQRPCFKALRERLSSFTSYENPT
T5 sequence (P42684 whole entry): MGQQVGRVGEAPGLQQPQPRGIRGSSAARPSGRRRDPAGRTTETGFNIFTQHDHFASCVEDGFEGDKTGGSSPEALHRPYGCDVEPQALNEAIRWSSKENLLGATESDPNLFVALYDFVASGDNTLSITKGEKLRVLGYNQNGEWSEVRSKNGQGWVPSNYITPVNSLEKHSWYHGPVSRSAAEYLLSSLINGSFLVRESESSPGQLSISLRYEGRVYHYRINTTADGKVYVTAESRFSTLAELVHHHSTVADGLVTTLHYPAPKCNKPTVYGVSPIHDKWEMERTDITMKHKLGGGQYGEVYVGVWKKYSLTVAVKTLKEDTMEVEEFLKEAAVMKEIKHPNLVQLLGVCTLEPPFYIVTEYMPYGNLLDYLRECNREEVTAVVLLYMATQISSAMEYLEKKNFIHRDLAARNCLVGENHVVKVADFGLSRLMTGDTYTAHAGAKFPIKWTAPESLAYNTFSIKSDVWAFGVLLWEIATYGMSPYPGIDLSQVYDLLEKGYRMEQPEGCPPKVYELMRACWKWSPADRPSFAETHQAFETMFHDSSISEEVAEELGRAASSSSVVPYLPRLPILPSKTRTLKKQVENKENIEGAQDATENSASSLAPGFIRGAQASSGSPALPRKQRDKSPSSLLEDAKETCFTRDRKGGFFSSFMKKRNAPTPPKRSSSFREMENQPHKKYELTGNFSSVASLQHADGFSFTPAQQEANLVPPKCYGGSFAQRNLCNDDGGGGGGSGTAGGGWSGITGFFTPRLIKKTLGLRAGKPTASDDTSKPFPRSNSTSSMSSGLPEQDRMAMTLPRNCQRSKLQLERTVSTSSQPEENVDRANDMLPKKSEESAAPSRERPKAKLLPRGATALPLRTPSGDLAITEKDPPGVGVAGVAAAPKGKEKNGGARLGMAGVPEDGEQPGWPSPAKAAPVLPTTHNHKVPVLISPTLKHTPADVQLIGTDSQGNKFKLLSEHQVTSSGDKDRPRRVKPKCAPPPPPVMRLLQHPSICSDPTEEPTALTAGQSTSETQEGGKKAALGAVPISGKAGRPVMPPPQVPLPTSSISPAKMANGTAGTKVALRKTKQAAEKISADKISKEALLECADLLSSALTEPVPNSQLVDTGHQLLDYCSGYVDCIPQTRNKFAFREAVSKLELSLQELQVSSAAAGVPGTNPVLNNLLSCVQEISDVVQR
T4 sequence (Q16620 32-822): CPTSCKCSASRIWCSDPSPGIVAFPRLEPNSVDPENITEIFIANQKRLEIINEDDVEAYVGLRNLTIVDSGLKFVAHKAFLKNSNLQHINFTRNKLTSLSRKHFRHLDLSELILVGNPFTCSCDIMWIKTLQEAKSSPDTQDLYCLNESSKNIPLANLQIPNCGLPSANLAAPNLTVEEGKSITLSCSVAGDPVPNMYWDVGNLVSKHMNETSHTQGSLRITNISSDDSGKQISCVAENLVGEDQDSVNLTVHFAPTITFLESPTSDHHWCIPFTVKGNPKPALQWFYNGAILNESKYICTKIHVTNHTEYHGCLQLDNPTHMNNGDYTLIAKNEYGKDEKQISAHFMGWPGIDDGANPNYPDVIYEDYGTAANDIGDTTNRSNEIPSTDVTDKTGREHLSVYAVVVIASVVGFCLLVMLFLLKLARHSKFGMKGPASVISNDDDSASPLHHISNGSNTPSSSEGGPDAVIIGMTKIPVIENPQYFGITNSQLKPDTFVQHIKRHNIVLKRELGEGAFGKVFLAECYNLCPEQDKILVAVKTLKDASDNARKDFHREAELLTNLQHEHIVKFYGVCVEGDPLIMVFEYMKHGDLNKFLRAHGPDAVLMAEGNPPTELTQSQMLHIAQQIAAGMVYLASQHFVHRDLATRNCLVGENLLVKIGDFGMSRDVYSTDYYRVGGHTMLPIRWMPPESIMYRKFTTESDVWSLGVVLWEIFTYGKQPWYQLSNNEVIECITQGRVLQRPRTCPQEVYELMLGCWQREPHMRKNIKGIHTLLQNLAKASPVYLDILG
T1 sequence (P11362 22-822): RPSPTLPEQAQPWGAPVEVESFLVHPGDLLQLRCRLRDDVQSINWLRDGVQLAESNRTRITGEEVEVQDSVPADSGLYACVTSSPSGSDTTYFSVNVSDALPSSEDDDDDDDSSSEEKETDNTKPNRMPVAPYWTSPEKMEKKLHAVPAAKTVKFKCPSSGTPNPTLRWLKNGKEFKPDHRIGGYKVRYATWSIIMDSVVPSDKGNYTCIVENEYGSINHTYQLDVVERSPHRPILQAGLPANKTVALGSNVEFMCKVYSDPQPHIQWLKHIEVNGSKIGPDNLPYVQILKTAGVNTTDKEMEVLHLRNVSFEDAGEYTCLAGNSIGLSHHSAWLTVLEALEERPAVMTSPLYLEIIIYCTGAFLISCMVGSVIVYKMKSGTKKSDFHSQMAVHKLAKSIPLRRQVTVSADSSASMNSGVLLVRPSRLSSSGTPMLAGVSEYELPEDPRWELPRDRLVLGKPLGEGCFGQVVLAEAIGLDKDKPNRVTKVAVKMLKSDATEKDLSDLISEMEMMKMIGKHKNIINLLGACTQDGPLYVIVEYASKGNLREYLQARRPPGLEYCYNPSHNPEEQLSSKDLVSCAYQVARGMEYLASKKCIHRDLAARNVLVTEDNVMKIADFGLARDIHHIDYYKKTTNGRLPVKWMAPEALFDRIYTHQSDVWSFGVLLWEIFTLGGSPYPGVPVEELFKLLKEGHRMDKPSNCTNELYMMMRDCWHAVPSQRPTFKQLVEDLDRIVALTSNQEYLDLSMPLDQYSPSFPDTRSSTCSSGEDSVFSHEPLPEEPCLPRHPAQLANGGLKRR
T6 sequence (P09619 33-1106): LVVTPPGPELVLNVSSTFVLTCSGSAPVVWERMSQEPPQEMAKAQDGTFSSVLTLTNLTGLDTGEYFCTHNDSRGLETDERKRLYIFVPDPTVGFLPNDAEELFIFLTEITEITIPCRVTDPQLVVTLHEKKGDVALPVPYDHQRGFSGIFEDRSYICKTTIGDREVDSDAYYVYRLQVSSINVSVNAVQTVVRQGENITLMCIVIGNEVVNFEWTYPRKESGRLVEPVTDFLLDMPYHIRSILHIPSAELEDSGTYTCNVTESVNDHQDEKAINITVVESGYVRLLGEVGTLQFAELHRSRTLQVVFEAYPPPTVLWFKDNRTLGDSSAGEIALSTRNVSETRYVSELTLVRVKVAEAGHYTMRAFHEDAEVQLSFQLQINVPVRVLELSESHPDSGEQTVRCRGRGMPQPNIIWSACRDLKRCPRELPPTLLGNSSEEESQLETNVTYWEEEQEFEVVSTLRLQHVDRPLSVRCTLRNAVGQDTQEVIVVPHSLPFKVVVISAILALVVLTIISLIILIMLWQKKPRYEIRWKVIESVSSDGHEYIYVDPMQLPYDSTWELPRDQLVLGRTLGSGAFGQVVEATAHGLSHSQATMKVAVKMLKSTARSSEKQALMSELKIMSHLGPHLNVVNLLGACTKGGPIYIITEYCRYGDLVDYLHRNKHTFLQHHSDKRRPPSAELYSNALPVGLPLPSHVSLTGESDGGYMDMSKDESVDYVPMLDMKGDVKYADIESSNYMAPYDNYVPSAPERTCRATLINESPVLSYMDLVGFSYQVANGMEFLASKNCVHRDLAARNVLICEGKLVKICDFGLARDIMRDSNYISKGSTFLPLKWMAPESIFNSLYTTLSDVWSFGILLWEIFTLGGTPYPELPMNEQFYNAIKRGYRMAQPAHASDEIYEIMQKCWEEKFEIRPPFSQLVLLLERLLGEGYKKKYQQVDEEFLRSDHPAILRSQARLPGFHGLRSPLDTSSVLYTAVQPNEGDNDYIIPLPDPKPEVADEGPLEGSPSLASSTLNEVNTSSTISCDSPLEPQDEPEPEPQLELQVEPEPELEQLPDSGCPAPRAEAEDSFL

Compound: COc1ccc(/C=C2\N=C(C)N(c3ccc(CC(=O)NCc4ccccc4)cc3)C2=O)cc1 [Compound 4c, (Z)-N-Benzyl-2-(4-(4-(4-methoxybenzylidene)-2-methyl-5-oxo-4,5-dihydro-1H-imidazol-1-yl)phenyl)acetamide]
- Mean Final score (Kinase score) (FGFR1 (P11362)): 1.92
- Mean Kinase Statistic (FGFR1 (P11362)): -0.994
- Mean Significance Score (FGFR1 (P11362)): 1.619
- Mean Specificity Score (FGFR1 (P11362)): 0.1511
- Mean Final score (Kinase score) (LTK (P29376)): 1.968
- Mean Kinase Statistic (LTK (P29376)): -1.055
- Mean Significance Score (LTK (P29376)): 1.724
- Mean Specificity Score (LTK (P29376)): 0.1654
- Mean Final score (Kinase score) (Brk (Q13882)): 2.481
- Mean Kinase Statistic (Brk (Q13882)): -1.21
- Mean Significance Score (Brk (Q13882)): 2.048
- Mean Specificity Score (Brk (Q13882)): 0.446
- Mean Final score (Kinase score) (TRKB (Q16620)): 2.487
- Mean Kinase Statistic (TRKB (Q16620)): -1.25
- Mean Significance Score (TRKB (Q16620)): 2.048
- Mean Specificity Score (TRKB (Q16620)): 0.5169
- Mean Final score (Kinase score) (Arg (P42684)): 2.115
- Mean Kinase Statistic (Arg (P42684)): -1.085
- Mean Significance Score (Arg (P42684)): 2.048
- Mean Specificity Score (Arg (P42684)): 0.07369
- Mean Final score (Kinase score) (PDGFR[beta] (P09619)): 2.559
- Mean Kinase Statistic (PDGFR[beta] (P09619)): -1.304
- Mean Significance Score (PDGFR[beta] (P09619)): 2.048
- Mean Specificity Score (PDGFR[beta] (P09619)): 0.562
- Mean Significance Score (FLT3 (P36888)): 2.042
- Mean Specificity Score (FLT3 (P36888)): 1.043
- Mean Final score (Kinase score) (FLT3 (P36888); listed as KIM-161): 3.19 and 3.193
- Mean Final score (Kinase score) (Syk (P43405)): 2.113
- Mean Kinase Statistic (Syk (P43405)): -1.091
- Mean Significance Score (Syk (P43405)): 2.048
- Mean Specificity Score (Syk (P43405)): 0.02997
